Our source for the GI50 and TGI values is PubChem BioAssay (NCI).

Where “and” joins values, the source holds several entries; their conditions need not be identical. Equal entries are not always repeated.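 Briefly, cells in 96-well plates were exposed to five compound concentrations for 48 h, and endpoints were estimated by linear interpolation. At the GI50, growth is halved. TGI is the concentration that stops growth completely.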

What all share (assay): inhibition of tumour cell growth, NCI panel, 48 h
Assay [1] relates to T-47D breast.
Assay [2] has as its system MCF7 breast.
Assay [3] has as its system NCI-H522 lung.
Assay [4] has as its system OVCAR-8 ovarian.
Assay [5] concerns UO-31 renal.
Assay [6] has as its system KM12 colon.
For assay [7], the system named is COLO 205 colon.
Assay [8] deals with SK-OV-3 ovarian.
Assay [9] has as its system HCC-2998 colon.
For assay [10], the system named is RPMI-8226 leukemia.

With `Cn1c2ccccc2c2nnc(NNCc3ccccn3)nc21`, the GI50 in assay [1] was 0.369 µM; in assay [2], 0.372 µM; in assay [3], 0.546 µM; in [4] it was 0.429 µM; in assay [5], 0.258 µM; in [6], 0.478 µM. In addition, the GI50 in [7] was 0.476 µM; in assay [8], 0.387 µM; in assay [9], 0.321 µM; in [10], 0.589 µM. For the same compound, the TGI in assay [1] was found to be 8.98 µM; in [2] it was 14.5 µM; in assay [3], 18.1 µM; in [4], 20.5 µM; in assay [5] it was 1.98 µM; in assay [6], 14.2 µM. Besides, the TGI came to 11.4 µM in assay [7], 7.22 µM in [8], 12.7 µM in assay [9] and 18.4 µM in assay [10].
For `Nc1nc(-c2cc(-c3cccc4ccccc34)nc(N)n2)cc(-c2cccc3ccccc23)n1`, the TGI in assay [1], in assay [2], in assay [3], in assay [4], in [5] and in [6] was more than 100 µM throughout. Besides, the TGI in [7], in assay [8], in assay [9] and in assay [10] was more than 100 µM in each case.
Regarding `COC(=O)/C(=C\c1c(-c2ccccc2)[nH]c2ccccc12)S(C)(=O)=O`, the GI50 was 2.82 µM in assay [1]; 2.92 µM in assay [2]; 3.06 µM in assay [3]; 6.29 µM in assay [4]; 5.49 µM in [5]; 1.48 µM in assay [6]. Also, the GI50 in assay [7] is 4.39 µM; in [8], 12.1 µM; in assay [9], 8.78 µM; in assay [10], 6.15 µM. In addition, the TGI in [1] was 30.8 µM; in assay [2], 18.2 µM; in [3] it was 14.5 µM; in [4] it was more than 100 µM; in [5], 28.7 µM; in [6], 4.42 µM. Besides, the TGI amounted to 18.5 µM in assay [7], 75.5 µM in assay [8], 22.4 µM in assay [9] and 96.4 µM in assay [10].
Take `Clc1ccc(N2CCC(N3CCCC3)CC2)cc1-c1nc2ccccc2[nH]1`: the GI50 was 21.6 µM in assay [1]; 15.8 µM in assay [2]; 19.1 µM in [3]; 22.5 µM in assay [4]; 16.7 µM in assay [5]; 22.6 µM in assay [6]. In addition, the GI50 in [7] was 16 µM; in assay [8] it was 24.5 µM; in assay [9], 18.6 µM; in [10], 20.9 µM. The TGI came to 88.1 µM in assay [1]; 30.7 µM in assay [2]; 38.7 µM in assay [3]; 60.6 µM in [4]; 34 µM in assay [5]; 55.2 µM in [6]. Moreover, the TGI in assay [7] was 30.8 µM; in assay [8] it was more than 67.9 µM; in assay [9] it was 37.4 µM; in assay [10] it was 53.8 µM.
As to `CCN(CC)CCCNc1[nH]ncc2c(C)c3nc4ccccc4c3cc12`, the GI50 is 1.01 µM in [1]; 0.219 µM in [2]; 0.217 µM in assay [3]; 0.926 µM in assay [4]; 3.71 µM in [5]; 0.355 µM in [6]. For the same compound, the GI50 in [7] is 0.49 µM; in [8], 1.31 µM; in assay [9], 0.375 µM; in [10], 1.51 µM and 0.99 µM. The TGI in assay [1] was 17 µM and 20.2 µM; in assay [2] it was 0.756 µM and 5.9 µM; in assay [3], 1.15 µM and 1.14 µM; in [4], 4.85 µM and 4.58 µM; in assay [5], 14.6 µM and 22 µM; in assay [6], 1.47 µM and 6.75 µM. The TGI is 1.75 µM and 3.23 µM in assay [7]; 2.75 µM and 12.6 µM in assay [8]; 2.12 µM and 3.06 µM in assay [9]; 4.92 µM and 5.62 µM in [10].
Take `CN(C)c1ccc(/C=N/NC(=O)c2cccc3ccccc23)c(Cl)c1`: the GI50 in assay [1] was 2.95 µM; in [2], 0.348 µM; in [3], 1.12 µM; in [4], 3.29 µM; in assay [5], 14.6 µM; in assay [6] it was 1.01 µM. Further, the GI50 in [7] is 2.88 µM; in assay [8], 1.67 µM; in [9], 38.5 µM; in assay [10], 2.19 µM. Besides, the TGI is more than 100 µM in assay [1]; more than 100 µM in [2]; 39.4 µM in [3]; more than 100 µM in [4]; more than 100 µM in assay [5]; more than 100 µM in assay [6]. The TGI in [7] was more than 100 µM; in [8], 25.2 µM; in [9], more than 100 µM; in [10], more than 100 µM.
Take `COc1ccc(-c2nnc(Nc3nc(O)c(C4=c5cc(F)ccc5=NC4=O)s3)o2)cc1`: the GI50 in [1] was 93.2 µM; in assay [2] it was 34.5 µM; in assay [3], 33.9 µM; in assay [4] it was 54.4 µM; in [5], 37.9 µM; in assay [6], 43.1 µM. The GI50 in [7] is 68.2 µM; in [8] it was more than 100 µM; in [9], 84.3 µM; in assay [10], 59.1 µM. For the same compound, the TGI in assay [1], in [2], in assay [3], in [4], in assay [5] and in [6] was more than 100 µM each time. The TGI in assay [7], in assay [8], in assay [9] and in assay [10] was more than 100 µM in each case.
For the compound `N=C(N)SCc1ccc([N+](=O)[O-])cc1[N+](=O)[O-]`, the GI50 in assay [1] was 2.59 µM; in [2] it was 2.04 µM; in [3] it was 1.48 µM; in assay [4], 14.3 µM; in [5], 3.21 µM; in assay [6], 9.5 µM. The GI50 is 2.9 µM in [7], 20.8 µM in assay [8], 6.05 µM in assay [9] and 5.26 µM in assay [10]. Also, the TGI in assay [1] came to 11.4 µM; in assay [2], 16.9 µM; in assay [3], 3.12 µM; in assay [4], 75.7 µM; in assay [5], 14.3 µM; in assay [6] it was 22.7 µM. Further, the TGI in [7] was determined as 7.96 µM; in assay [8], 53.7 µM; in assay [9], 18.1 µM; in assay [10] it was 72.2 µM.
